Patent US20240025862A1, “SUBSTITUTED N-PHENYLURACILS AND SALTS THEREOF, AND USE THEREOF AS HERBICIDAL ACTIVE SUBSTANCES” (Bayer Aktiengesellschaft, priority 2020, published 2024)

Tests used:
Assay type in all cases: in vivo
[1] = tested on: Amaranthus retroflexus (AMARE); experiment: Post-emergence herbicidal action, greenhouse pot test; settings: rated visually after about 3 weeks vs untreated controls, 100% = plants have died
Procedure, shortened: (§1)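 Activity was scored by eye about 3 weeks after treatment against untreated plants, where 100% means dead plants and 0% means no difference. Plants at the one-leaf stage received a foliar spray of WP or EC formulations in water plus 0.5% additive (600 l/ha, up to 20 g/ha). Plants were grown in sandy loam pots in a greenhouse for 2–3 weeks before spraying.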

[2] = tested on: Polygonum convolvulus (POLCO); experiment: as above
Procedure, shortened: as §1

[3] = tested on: Avena fatua (AVEFA); experiment: as above; settings: 20 g/ha, rated visually after about 3 weeks vs untreated controls, 100% = plants have died
Procedure, shortened: as §1

[4] = tested on: Veronica persica (VERPE); experiment: as above
Procedure, shortened: as §1

[5] = tested on: Pharbitis purpurea (PHBPU); experiment: as above
Procedure, shortened: as §1

[6] = tested on: Viola tricolor (VIOTR); experiment: as above
Procedure, shortened: as §1

[7] = tested on: Abutilon theophrasti (ABUTH); experiment: as above; settings: rated visually after about 3 weeks vs untreated controls, 100% = plants have died
Procedure, shortened: as §1

[8] = tested on: Triticum aestivum (TRZAS); experiment: Post-emergence crop plant compatibility, greenhouse pot test; settings: vs untreated controls
Procedure, shortened: (§2)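 Compatibility was scored as visual % effect against untreated controls about 3 weeks after spraying green plant parts at the one-leaf stage. Formulations (WP/EC) were applied in aqueous form with 0.5% additive, 600 l/ha, to greenhouse-grown pot plants.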

[9] = tested on: Zea mays (ZEAMX); experiment: as above; settings: 1.25 g/ha, vs untreated controls
Procedure, shortened: as §2

[10] = tested on: Oryza sativa (ORYSA); experiment: Post-emergence crop plant compatibility, greenhouse pot test (also comparative test C); settings: for Post-emergence action against ORYSA (crop plant compatibility): vs untreated controls
Procedure, shortened: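 Visual damage versus untreated plants (0% = like control, 100% = plants died) was scored about 3 weeks after a post-emergence spray in greenhouse pots. Treatment: one-leaf stage, WP or EC in water at 600 l/ha with 0.5% additive; a/b/c mark different dosages on the same crop.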

[11] = tested on: Alopecurus myosuroides (ALOMY); experiment: Post-emergence herbicidal action, greenhouse pot test (also comparative test C); settings: rated visually after about 3 weeks vs untreated controls, 100% = plants have died
Procedure, shortened: (§3)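 Greenhouse pot plants in sandy loam were sprayed post-emergence at the one-leaf stage (2–3 weeks after sowing) with WP or EC formulations plus 0.5% additive at 600 l/ha water. Activity was rated visually after about 3 weeks versus untreated controls (100% = dead, 0% = like control); rates were 20 g/ha or less, and 5 g/ha or less in the comparative test.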

[12] = tested on: Setaria viridis (SETVI); experiment: as above
Procedure, shortened: as §3

[13] = tested on: Matricaria inodora (MATIN); experiment: as above
Procedure, shortened: as §3

[14] = tested on: Echinochloa crus-galli (ECHCG); experiment: as above
Procedure, shortened: as §3

COCC(C)OC(=O)COc1ccccc1Oc1cc(-n2c(=O)cc(C(F)(F)F)n(C)c2=O)c(F)cc1Cl (stereo not drawn) [I.7-94, 1-Methoxypropan-2-yl (2-{2-chloro-4-fluoro-5-[3-methyl-2,6-dioxo-4-(trifluoromethyl)-3,6-dihydropyrimidin-1(2H)-yl]phenoxy}phenoxy)acetate]
100%: pest or weed control at 1.25 g/ha ([1]; Amaranthus retroflexus, 504 h, 1.25 g/ha, read-out: Post-emergence action at 1.25 g/ha against AMARE in %) | pest or weed control at 5 g/ha ([1]; Amaranthus retroflexus, 504 h, 5 g/ha, read-out: Post-emergence action at 5 g/ha against AMARE in %) | pest or weed control at 20 g/ha ([1]; Amaranthus retroflexus, 504 h, 20 g/ha, read-out: Post-emergence action at 20 g/ha against AMARE in %) | pest or weed control at 20 g/ha ([2]; Fallopia convolvulus, 504 h, dosage 20 g/ha, read-out: Post-emergence action against POLCO in %) | pest or weed control at 1.25 g/ha ([4]; Veronica persica, 504 h, 1.25 g/ha, read-out: Post-emergence action against VERPE) | pest or weed control at 5 g/ha ([4]; Veronica persica, 504 h, 5 g/ha, read-out: Post-emergence action against VERPE) | pest or weed control at 20 g/ha ([4]; Veronica persica, 504 h, 20 g/ha, read-out: Post-emergence action against VERPE) | pest or weed control at 1.25 g/ha ([5]; Ipomoea purpurea, 504 h, dosage 1.25 g/ha, read-out: Post-emergence action against PHBPU in %) | pest or weed control at 5 g/ha ([5]; Ipomoea purpurea, 504 h, dosage 5 g/ha, read-out: Post-emergence action against PHBPU in %) | pest or weed control at 20 g/ha ([5]; Ipomoea purpurea, 504 h, dosage 20 g/ha, read-out: Post-emergence action against PHBPU in %) | pest or weed control at 5 g/ha ([6]; Viola tricolor, 504 h, 5 g/ha, read-out: Post-emergence action against VIOTR) | pest or weed control at 20 g/ha ([6]; Viola tricolor, 504 h, 20 g/ha, read-out: Post-emergence action against VIOTR) | pest or weed control at 1.25 g/ha ([7]; Abutilon theophrasti, 504 h, 1.25 g/ha, read-out: Post-emergence action at 1.25 g/ha against ABUTH in %) | pest or weed control at 5 g/ha ([7]; Abutilon theophrasti, 504 h, 5 g/ha, read-out: Post-emergence action at 5 g/ha against ABUTH in %) | pest or weed control at 20 g/ha ([7]; Abutilon theophrasti, 504 h, 20 g/ha, read-out: Post-emergence action at 20 g/ha against ABUTH in %) | pest or weed control at 20 g/ha ([12]; Setaria viridis, 504 h, 20 g/ha, read-out: Post-emergence action against SETVI) | pest or weed control at 1.25 g/ha ([12]; Setaria viridis, 504 h, dosage 1.25 g/ha, read-out: Post-emergence action against SETVI in %) | pest or weed control at 5 g/ha ([12]; Setaria viridis, 504 h, dosage 5 g/ha, read-out: Post-emergence action against SETVI in %) | pest or weed control at 20 g/ha ([13]; Tripleurospermum inodorum, 504 h, dosage 20 g/ha, read-out: Post-emergence action against MATIN in %) | pest or weed control at 5 g/ha ([14]; Echinochloa crus-galli, 504 h, dosage 5 g/ha, read-out: Post-emergence action against ECHCG in %) | pest or weed control at 20 g/ha ([14]; Echinochloa crus-galli, 504 h, dosage 20 g/ha, read-out: Post-emergence action against ECHCG in %)
80%: pest or weed control at 20 g/ha ([3]; Avena fatua, 504 h, read-out: Post-emergence action at 20 g/ha against AVEFA in %) | pest or weed control at 1.25 g/ha ([6]; Viola tricolor, 504 h, 1.25 g/ha, read-out: Post-emergence action against VIOTR) | pest or weed control at 5 g/ha ([11]; Alopecurus myosuroides, 504 h, 5 g/ha, read-out: Post-emergence action at 5 g/ha against ALOMY in %) | pest or weed control at 20 g/ha ([11]; Alopecurus myosuroides, 504 h, 20 g/ha, read-out: Post-emergence action at 20 g/ha against ALOMY in %) | pest or weed control at 1.25 g/ha ([13]; Tripleurospermum inodorum, 504 h, dosage 1.25 g/ha, read-out: Post-emergence action against MATIN in %) | pest or weed control at 5 g/ha ([13]; Tripleurospermum inodorum, 504 h, dosage 5 g/ha, read-out: Post-emergence action against MATIN in %)
0%: Post-emergence action against ORYSA (crop plant compatibility) ([10]; 1.25 g/ha)
20%: Post-emergence action against TRZAS (crop plant compatibility) ([8]; 1.25 g/ha) | Post-emergence action against ORYSA (crop plant compatibility) ([10]; 5 g/ha)
10%: Post-emergence action against ZEAMX (crop plant compatibility) [9]

Cn1c(C(F)(F)F)cc(=O)n(-c2cc(Oc3ccccc3OCC(=O)OCCOC(F)(F)F)c([N+](=O)[O-])cc2F)c1=O [I.6-41]
100%: Post-emergence action at 1.25 g/ha against AMARE in % ([1]; 1.25 g/ha) | Post-emergence action at 5 g/ha against AMARE in % ([1]; 5 g/ha) | Post-emergence action at 20 g/ha against AMARE in % ([1]; 20 g/ha) | Post-emergence action against POLCO in % ([2]; dosage 20 g/ha) | Post-emergence action against VERPE ([4]; 5 g/ha) | Post-emergence action against VERPE ([4]; 20 g/ha) | Post-emergence action against PHBPU in % ([5]; dosage 1.25 g/ha) | Post-emergence action against PHBPU in % ([5]; dosage 5 g/ha) | Post-emergence action against PHBPU in % ([5]; dosage 20 g/ha) | Post-emergence action against VIOTR ([6]; 1.25 g/ha) | Post-emergence action against VIOTR ([6]; 5 g/ha) | Post-emergence action against VIOTR ([6]; 20 g/ha) | Post-emergence action at 1.25 g/ha against ABUTH in % ([7]; 1.25 g/ha) | Post-emergence action at 5 g/ha against ABUTH in % ([7]; 5 g/ha) | Post-emergence action at 20 g/ha against ABUTH in % ([7]; 20 g/ha) | Post-emergence action at 20 g/ha against ALOMY in % ([11]; 20 g/ha) | Post-emergence action against SETVI ([12]; 20 g/ha) | Post-emergence action against SETVI in % ([12]; dosage 1.25 g/ha) | Post-emergence action against SETVI in % ([12]; dosage 5 g/ha) | Post-emergence action against MATIN in % ([13]; dosage 20 g/ha) | Post-emergence action against ECHCG in % ([14]; dosage 5 g/ha) | Post-emergence action against ECHCG in % ([14]; dosage 20 g/ha)
10%: Post-emergence action against TRZAS (crop plant compatibility) ([8]; 1.25 g/ha) | Post-emergence action against ORYSA (crop plant compatibility) ([10]; 1.25 g/ha) | Post-emergence action against ORYSA (crop plant compatibility) ([10]; 5 g/ha)
80%: Post-emergence action at 20 g/ha against AVEFA in % [3] | Post-emergence action at 5 g/ha against ALOMY in % ([11]; 5 g/ha) | Post-emergence action against MATIN in % ([13]; dosage 5 g/ha)
20%: Post-emergence action against TRZAS (crop plant compatibility) ([8]; 5 g/ha) | Post-emergence action against TRZAS (crop plant compatibility) ([8]; 20 g/ha) | Post-emergence action against ZEAMX (crop plant compatibility) [9] | Post-emergence action against ORYSA in % ([10]; 20 g/ha, crop plant compatibility)

Cn1c(C(F)(F)F)cc(=O)n(-c2cc(Oc3ccccc3OCC(=O)OCCOC(F)(F)F)c(Br)cc2F)c1=O [I.8-41]
80%: Post-emergence action against POLCO in % ([2]; dosage 1.25 g/ha) | Post-emergence action at 20 g/ha against AVEFA in % [3] | Post-emergence action at 1.25 g/ha against ABUTH in % ([7]; 1.25 g/ha) | Post-emergence action at 5 g/ha against ALOMY in % ([11]; 5 g/ha)
0%: Post-emergence action against TRZAS (crop plant compatibility) ([8]; 1.25 g/ha) | Post-emergence action against ORYSA (crop plant compatibility) ([10]; 1.25 g/ha)
100%: Post-emergence action at 1.25 g/ha against AMARE in % ([1]; 1.25 g/ha) | Post-emergence action at 5 g/ha against AMARE in % ([1]; 5 g/ha) | Post-emergence action at 20 g/ha against AMARE in % ([1]; 20 g/ha) | Post-emergence action against POLCO in % ([2]; dosage 20 g/ha) | Post-emergence action against VERPE ([4]; 5 g/ha) | Post-emergence action against VERPE ([4]; 20 g/ha) | Post-emergence action against PHBPU in % ([5]; dosage 1.25 g/ha) | Post-emergence action against PHBPU in % ([5]; dosage 5 g/ha) | Post-emergence action against PHBPU in % ([5]; dosage 20 g/ha) | Post-emergence action against VIOTR ([6]; 1.25 g/ha) | Post-emergence action against VIOTR ([6]; 5 g/ha) | Post-emergence action against VIOTR ([6]; 20 g/ha) | Post-emergence action at 5 g/ha against ABUTH in % ([7]; 5 g/ha) | Post-emergence action at 20 g/ha against ABUTH in % ([7]; 20 g/ha) | Post-emergence action at 20 g/ha against ALOMY in % ([11]; 20 g/ha) | Post-emergence action against SETVI ([12]; 20 g/ha) | Post-emergence action against SETVI in % ([12]; dosage 1.25 g/ha) | Post-emergence action against SETVI in % ([12]; dosage 5 g/ha) | Post-emergence action against MATIN in % ([13]; dosage 20 g/ha) | Post-emergence action against ECHCG in % ([14]; dosage 20 g/ha)
20%: Post-emergence action against TRZAS (crop plant compatibility) ([8]; 5 g/ha) | Post-emergence action against ZEAMX (crop plant compatibility) [9] | Post-emergence action against ORYSA (crop plant compatibility) ([10]; 5 g/ha)
90%: Post-emergence action against POLCO in % ([2]; dosage 5 g/ha) | Post-emergence action against MATIN in % ([13]; dosage 1.25 g/ha) | Post-emergence action against MATIN in % ([13]; dosage 5 g/ha) | Post-emergence action against ECHCG in % ([14]; dosage 5 g/ha)
